Drawing on ChEMBL document CHEMBL3593172, “4-(N-Phenyl-N'-substituted benzenesulfonyl)-6-(4-hydroxyphenyl)quinolines as inhibitors of mammalian target of rapamycin” (Bioorg Med Chem, 2015), this text covers inhibition, inhibition of growth and IC50 for 7 molecules.

Assay [1] concerns the target Serine/threonine-protein kinase mTOR (Homo sapiens) (UniProt P42345). The assay can be described thus: Inhibition of mTOR (unknown origin) assessed as p70S6K phosphorylation after 30 mins by ELISA.
The test system of assay [2] is HL-60. The assay can be described thus: Cytotoxicity against human HL60 cells assessed as growth inhibition at 10 uM after 24 to 48 hrs by MTT assay relative to control. Type of assay: functional. Conditions: read-out: GI.
The test system of assay [3] is HL-60. The assay can be described thus: Cytotoxicity against human HL60 cells assessed as growth inhibition at 30 uM after 24 to 48 hrs by MTT assay relative to control. The following applies: read-out: GI. The format is functional.
The test system of assay [4] is HL-60. The assay can be described thus: Cytotoxicity against human HL60 cells assessed as growth inhibition at 100 uM after 24 to 48 hrs by MTT assay relative to control. Type of assay: functional. Conditions: read-out: GI.
Assay [5] in a line: Cytotoxicity against human MIAPaCa2 cells assessed as growth inhibition at 10 uM after 24 to 48 hrs by MTT assay relative to control. The following applies: MIA PaCa-2, read-out: GI. The format is functional.
The nature of assay [6]: Cytotoxicity against human MIAPaCa2 cells assessed as growth inhibition at 30 uM after 24 to 48 hrs by MTT assay relative to control. Type of assay: functional. The following applies: MIA PaCa-2, read-out: GI.
Assay [7] is described as follows: Cytotoxicity against human MIAPaCa2 cells assessed as growth inhibition at 100 uM after 24 to 48 hrs by MTT assay relative to control. Type of assay: functional. Conditions: MIA PaCa-2, read-out: GI.
Assay [8] relates to HCT-116. The assay can be described thus: Cytotoxicity against human HCT116 cells assessed as growth inhibition at 10 uM after 24 to 48 hrs by MTT assay relative to control. The format is functional. Conditions: read-out: GI.
Assay [9] relates to HCT-116. As to the kind of experiment: Cytotoxicity against human HCT116 cells assessed as growth inhibition at 30 uM after 24 to 48 hrs by MTT assay relative to control. Conditions: read-out: GI. Type of assay: functional.
Assay [10] has as its system HCT-116. The assay can be described thus: Cytotoxicity against human HCT116 cells assessed as growth inhibition at 100 uM after 24 to 48 hrs by MTT assay relative to control. The format is functional. Conditions: read-out: GI.
For assay [11], the system named is HepG2. The assay can be described thus: Cytotoxicity against human HepG2 cells assessed as growth inhibition at 10 uM after 24 to 48 hrs by MTT assay relative to control. Type of assay: functional. Conditions: read-out: GI.
In assay [12] the test system is HepG2. The assay can be described thus: Cytotoxicity against human HepG2 cells assessed as growth inhibition at 30 uM after 24 to 48 hrs by MTT assay relative to control. The format is functional. The following applies: read-out: GI.
The subject of assay [13] is HepG2. As to the kind of experiment: Cytotoxicity against human HepG2 cells assessed as growth inhibition at 100 uM after 24 to 48 hrs by MTT assay relative to control. Type of assay: functional. The following applies: read-out: GI.
In assay [14] the test system is PC-3. The assay can be described thus: Cytotoxicity against human PC3 cells assessed as growth inhibition at 10 uM after 24 to 48 hrs by MTT assay relative to control. The format is functional. The following applies: read-out: GI.
Assay [15] has as its system PC-3. As to the kind of experiment: Cytotoxicity against human PC3 cells assessed as growth inhibition at 30 uM after 24 to 48 hrs by MTT assay relative to control. Type of assay: functional. Conditions: read-out: GI.
The test system of assay [16] is PC-3. The assay can be described thus: Cytotoxicity against human PC3 cells assessed as growth inhibition at 100 uM after 24 to 48 hrs by MTT assay relative to control. Type of assay: functional. The following applies: read-out: GI.
For assay [17], the system named is HL-60. As to the kind of experiment: cells. Conditions: Homo sapiens, HL-60, 48 h.
Description: Cytotoxicity against human HL60 cells assessed as inhibition of cell proliferation after 48 hrs by MTT assay
Assay [18] in a line: cells. Conditions: Homo sapiens, MIA PaCa-2, 48 h.
Description: Cytotoxicity against human MIAPaCa2 cells assessed as inhibition of cell proliferation after 48 hrs by MTT assay
The test system of assay [19] is HCT-116. The assay can be described thus: cells. The following applies: Homo sapiens, HCT-116, 48 h.
Description: Cytotoxicity against human HCT116 cells assessed as inhibition of cell proliferation after 48 hrs by MTT assay
Assay [20] relates to HepG2. As to the kind of experiment: cells. Conditions: Homo sapiens, HepG2, 48 h.
Description: Cytotoxicity against human HepG2 cells assessed as inhibition of cell proliferation after 48 hrs by MTT assay
Assay [21] relates to PC-3. The assay can be described thus: cells. The following applies: Homo sapiens, PC-3, 48 h.
Description: Cytotoxicity against human PC3 cells assessed as inhibition of cell proliferation after 48 hrs by MTT assay

For `COC[C@H]1OC(=O)c2coc3c2[C@@]1(C)C1=C(C3=O)[C@@H]2CCC(=O)[C@@]2(C)C[C@H]1OC(C)=O`, in assay [1], the inhibition turned out to be 100%.

For the molecule `O=S(=O)(c1ccc(Br)cc1)N(c1ccccc1)c1ccnc2ccc(-c3ccc(O)cc3)cc12`, the inhibition of growth at 10 µM is 69% in assay [2]; 27% in assay [5]; 9% in assay [8]; 1% in assay [11]; 15% in [14]. Further, the inhibition of growth at 30 µM in assay [3] was found to be 88%; in [6] it was 76%; in assay [9] it was 23%; in [12], 73%; in [15], 28%. For the same molecule, the inhibition of growth at 100 µM stood at 87% in assay [4]; 81% in [7]; 73% in assay [10]; 80% in assay [13]; 25% in [16]. Besides, the IC50 in assay [17] was less than 10 µM; in [18] it was 20 µM; in assay [19], 68 µM; in assay [20] it was 22 µM; in [21], greater than 100 µM.

On to `O=C(c1ccccc1F)N(c1ccccc1)c1ccnc2ccc(-c3ccc(O)cc3)cc12`, for which the inhibition of growth at 10 µM in assay [2] came to 55%; in assay [5], 36%; in assay [8] it was 26%; in assay [11] it was 22%; in [14], 27%. Besides, the inhibition of growth at 30 µM in [3] came out at 93%; in assay [6] it was 90%; in assay [9] it was 32%; in assay [12] it was 84%; in [15], 65%. For the same molecule, the inhibition of growth at 100 µM is 94% in assay [4]; 90% in [7]; 88% in assay [10]; 87% in [13]; 88% in [16]. Moreover, the IC50 is less than 10 µM in assay [17]; 15 µM in assay [18]; 52 µM in assay [19]; 18 µM in assay [20]; 22 µM in assay [21].

Regarding `O=[N+]([O-])c1cc(S(=O)(=O)N(c2ccccc2)c2ccnc3ccc(-c4ccc(O)cc4)cc23)ccc1C(F)(F)F`, the inhibition of growth at 10 µM in assay [2] was 90%; in assay [5] it was 45%; in [8] it was 20%; in [11], 3%; in assay [14] it was 39%. The inhibition of growth at 30 µM in assay [3] is 92%; in [6] it was 60%; in [9], 23%; in [12], 3%; in assay [15], 68%. For the same molecule, the inhibition of growth at 100 µM was 93% in assay [4]; 79% in [7]; 29% in assay [10]; 8% in assay [13]; 84% in assay [16]. Further, the 50% inhibitory concentration (IC50) in assay [17] was less than 10 µM; in assay [18] it was 16 µM; in [19], greater than 100 µM; in assay [20], greater than 100 µM; in assay [21] it was 18 µM.

`O=S(=O)(c1ccccc1)N(c1ccccc1)c1ccnc2ccc(-c3ccc(O)cc3)cc12`: the inhibition of growth at 10 µM in [2] was 87%; in assay [5], 80%; in assay [8], 8%; in [11], 40%; in assay [14], 15%. In addition, the inhibition of growth at 30 µM in assay [3] was found to be 89%; in assay [6] it was 84%; in assay [9], 57%; in assay [12], 90%; in assay [15] it was 61%. Also, the inhibition of growth at 100 µM in [4] was 91%; in assay [7], 87%; in assay [10], 89%; in assay [13] it was 91%; in [16], 76%. In addition, the concentration for half-maximal inhibition (IC50) is less than 10 µM in assay [17]; less than 10 µM in [18]; 28 µM in assay [19]; 12 µM in assay [20]; 25 µM in assay [21].

Turning to `Cc1ccc(S(=O)(=O)N(c2ccccc2)c2ccnc3ccc(-c4ccc(O)cc4)cc23)cc1`, the inhibition of growth at 10 µM in [2] turned out to be 78%; in [5] it was 80%; in [8], 21%; in assay [11] it was 13%; in [14] it was 20%. In addition, the inhibition of growth at 30 µM was 90% in assay [3]; 88% in assay [6]; 34% in assay [9]; 90% in [12]; 43% in [15]. Also, the inhibition of growth at 100 µM in assay [4] turned out to be 92%; in assay [7], 89%; in [10], 82%; in [13] it was 97%; in [16] it was 72%. In addition, the IC50 in [17] was less than 10 µM; in [18] it was less than 10 µM; in [19], 53 µM; in assay [20], 19 µM; in [21], 45 µM.

For the molecule `COc1ccc(-c2ccc3nccc(Nc4ccccc4)c3c2)cc1`, the inhibition of growth at 10 µM was determined as 32% in assay [2]; 42% in assay [5]; 16% in assay [8]; 19% in assay [11]; 40% in [14]. Also, the inhibition of growth at 30 µM in [3] worked out at 69%; in assay [6] it was 53%; in assay [9] it was 45%; in assay [12] it was 30%; in [15], 46%. In addition, the inhibition of growth at 100 µM was determined as 91% in assay [4]; 55% in assay [7]; 77% in assay [10]; 36% in assay [13]; 71% in [16]. For the same molecule, the concentration for half-maximal inhibition (IC50) was 18 µM in assay [17]; 26 µM in assay [18]; 40 µM in assay [19]; greater than 100 µM in assay [20]; 39 µM in assay [21].
